Measurements from US20250163104A1, “MACROCYCLIC IMMUNOMODULATORS” (priority 2021, published 2025).
pIC50: −log10 of the molar value. Where a SMILES comes first, the peptide text is derived from it. Bridges are numbered along the chain shown (N, C = ends). [ ]: non-standard residue; d: D form. The star is where a group is joined. Bip = N[C@@H](Cc1ccc(-c2ccccc2)cc1)C(=O)O; 2Thi = N[C@@H](Cc1cccs1)C(=O)O; Cha = N[C@@H](CC1CCCCC1)C(=O)O; Carboxymethyl = O=C(O)C*; Orn = NCCC[C@H](N)C(=O)O; Dab = NCC[C@H](N)C(=O)O; Dap = NC[C@H](N)C(=O)O

These compounds were tested against T1, human PD-1 / PD-L1-Ig binding on Jurkat cell line over-expressing human PD-1 (Jurkat-PD-1) (Homo sapiens, UniProt Q15116) (assay: Jurkat-PD-1 Cell Binding High-Content Screening Assay (CBA)). Conditions: Jurkat-PD-1 cells, PE-labeled PD-L1-Ig 20 nM final; read-out: Jurkat HPD1_PDL1 IC50.
T1 construct: expressed in transfected cells; host or cells: Jurkat
T1 sequence (Q15116 25-288): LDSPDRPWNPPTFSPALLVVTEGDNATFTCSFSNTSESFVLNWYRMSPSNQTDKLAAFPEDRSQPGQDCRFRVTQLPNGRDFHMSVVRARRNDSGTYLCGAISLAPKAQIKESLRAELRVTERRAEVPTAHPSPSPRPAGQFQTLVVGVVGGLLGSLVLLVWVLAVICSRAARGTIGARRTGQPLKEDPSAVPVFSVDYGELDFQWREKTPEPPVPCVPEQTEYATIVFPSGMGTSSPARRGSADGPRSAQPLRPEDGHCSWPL
Format: cell-based
How it was run: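 Binding of fluorescent PD-L1-Ig (phycoerythrin linked via the Ig tag, 20 nM final) to PD-1-overexpressing Jurkat cells was imaged after a 2 h, 37° C compound pretreatment and 1 hour ligand incubation.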
`CC(C)C[C@H]1NC(=O)[C@H](CCCN)NC(=O)[C@H](CCC(=O)O)NC(=O)[C@H](Cc2ccc(-c3ccccc3)cc2)NC(=O)[C@H](C(C)C)NC(=O)[C@H](Cc2ccc(F)cc2)NC(=O)[C@H](CC(=O)O)NC(=O)[C@H](Cc2ccc(OCC(=O)O)cc2)NC(=O)[C@H](CN)NC(=O)CSC[C@@H](C(=O)N[C@@H](C)C(N)=O)NC(=O)[C@H]([C@@H](C)O)NC(=O)[C@H](C(C)C)NC(=O)[C@H](CC2CCCCC2)NC(=O)[C@H](CCN)NC1=O` [Compound 2147] gave a pIC50 of 7.92.
For `CC(C)C[C@H]1NC(=O)[C@H](CCCN)NC(=O)[C@H](CCC(=O)O)NC(=O)[C@H](Cc2ccc(-c3ccccc3)cc2)NC(=O)[C@H](C(C)C)NC(=O)[C@H](Cc2ccc(F)c(F)c2)NC(=O)[C@H](CC(=O)O)NC(=O)[C@H](Cc2ccc(OCC(=O)O)cc2)NC(=O)[C@H](CN)NC(=O)CSC[C@@H](C(=O)N[C@@H](C)C(N)=O)NC(=O)[C@H]([C@@H](C)O)NC(=O)[C@H](C(C)C)NC(=O)[C@H](CC2CCCCC2)NC(=O)[C@H](CCN)NC1=O` [Compound 2148], the pIC50 was 7.76.
Compound `CC(C)C[C@H]1NC(=O)[C@H](CCCN)NC(=O)[C@H](CCC(=O)O)NC(=O)[C@H](Cc2ccc(-c3ccccc3)cc2)NC(=O)[C@H](C(C)C)NC(=O)[C@H](Cc2cc(F)c(F)c(F)c2)NC(=O)[C@H](CC(=O)O)NC(=O)[C@H](Cc2ccc(OCC(=O)O)cc2)NC(=O)[C@H](CN)NC(=O)CSC[C@@H](C(=O)N[C@@H](C)C(N)=O)NC(=O)[C@H]([C@@H](C)O)NC(=O)[C@H](C(C)C)NC(=O)[C@H](CC2CCCCC2)NC(=O)[C@H](CCN)NC1=O` [Compound 2149] has a pIC50 of 7.38.
For `CC(C)C[C@H]1NC(=O)[C@H](CCCN)NC(=O)[C@H](CCC(=O)O)NC(=O)[C@H](Cc2ccc(-c3ccccc3)cc2)NC(=O)[C@H](C(C)C)NC(=O)[C@H](Cc2ccccc2F)NC(=O)[C@H](CC(=O)O)NC(=O)[C@H](Cc2ccc(OCC(=O)O)cc2)NC(=O)[C@H](CN)NC(=O)CSC[C@@H](C(=O)N[C@@H](C)C(N)=O)NC(=O)[C@H]([C@@H](C)O)NC(=O)[C@H](C(C)C)NC(=O)[C@H](CC2CCCCC2)NC(=O)[C@H](CCN)NC1=O` [Compound 2150], the pIC50 was 8.12.
`Cc1ccccc1C[C@@H]1NC(=O)[C@H](CC(=O)O)NC(=O)[C@H](Cc2ccc(OCC(=O)O)cc2)NC(=O)[C@H](CN)NC(=O)CSC[C@@H](C(=O)N[C@@H](C)C(N)=O)NC(=O)[C@H]([C@@H](C)O)NC(=O)[C@H](C(C)C)NC(=O)[C@H](CC2CCCCC2)NC(=O)[C@H](CCN)NC(=O)[C@@H](CC(C)C)NC(=O)[C@H](CCCN)NC(=O)[C@H](CCC(=O)O)NC(=O)[C@H](Cc2ccc(-c3ccccc3)cc2)NC(=O)[C@H](C(C)C)NC1=O` [Compound 2151] was tested, and the pIC50 was 7.92.
With `CC(C)C[C@H]1NC(=O)[C@H](CCCN)NC(=O)[C@H](CCC(=O)O)NC(=O)[C@H](Cc2ccc(-c3ccccc3)cc2)NC(=O)[C@H](C(C)C)NC(=O)[C@H](Cc2ccc(Cl)c(Cl)c2)NC(=O)[C@H](CC(=O)O)NC(=O)[C@H](Cc2ccc(OCC(=O)O)cc2)NC(=O)[C@H](CN)NC(=O)CSC[C@@H](C(=O)N[C@@H](C)C(N)=O)NC(=O)[C@H]([C@@H](C)O)NC(=O)[C@H](C(C)C)NC(=O)[C@H](CC2CCCCC2)NC(=O)[C@H](CCN)NC1=O` [Compound 2152] the pIC50 was 7.95.
Compound `CC(C)C[C@H]1NC(=O)[C@H](CCCN)NC(=O)[C@H](CCC(=O)O)NC(=O)[C@H](Cc2ccc(-c3ccccc3)cc2)NC(=O)[C@H](C(C)C)NC(=O)[C@H](Cc2cccs2)NC(=O)[C@H](CC(=O)O)NC(=O)[C@H](Cc2ccc(OCC(=O)O)cc2)NC(=O)[C@H](CN)NC(=O)CSC[C@@H](C(=O)N[C@@H](C)C(N)=O)NC(=O)[C@H]([C@@H](C)O)NC(=O)[C@H](C(C)C)NC(=O)[C@H](CC2CCCCC2)NC(=O)[C@H](CCN)NC1=O` [Compound 2153] ({CH2CO}-[Dap]Y(Carboxymethyl)D[2Thi]V[Bip]E[Orn][dL][Dab][Cha]VTCA-NH2; thioether N-14) has a pIC50 of 8.00.
